Data published in US10881709B2, “Immune system modulators and compositions” (Canimguide Therapeutics AB, priority 2015, dated 2021).
Ends that are not written are not given here.

Tests used:
[1] = target: P3028 (SEQ ID NO: 185) (Homo sapiens, UniProt P02768); assay: Positional scan: P3028 binding to solid phase P28R variants (ELISA)
Protocol: Positional scan data was used to study the influence of substitution of different types of amino acids in each position of P28R (SEQ ID NO: 2) on the binding of P3028 (SEQ ID NO: 185). Each amino acid in the peptide sequence of P28R (SEQ ID NO: 2) was exchanged with all of the naturally occurring amino acids, and immobilized on a solid phase chip. The binding of P3028 to these “mutated” P28 R peptides synthesized on a chip was determined using the ELISA technique. In view of the results, Table 13 includes a column identifying optional substitutions at each position that can maintain binding to P3028.

[2] = test system: PBMCs from healthy control person; assay: PBMC activation (CD69/CD71, flow cytometry) in RPMI plus 10% human AB serum; type: cell-based; conditions: 40 μg/mL, 24 hours, healthy PBMCs
Protocol: The activity of peptide P28R (SEQ ID NO: 2) and modifications of P28R was studied in a human ex vivo model using PBMCs in short term cultures, 24 or 48 hours. Effects of P28R and modifications of P28R on PBMCs from a healthy control person were studied. Activation was measured as percentage of cells with enhanced marker CD69 using flow cytometry. PBMCs were incubated with the peptides (40 μg/mL) for 24 hours in RPMI plus 10% human AB serum.
As observed in Example 37, P28R (SEQ ID NO: 2) can stimulate PBMCs from healthy controls in short term cultures when RPMI plus 10% normal human AB serum is used as culture medium. Truncations of P28R were also assessed for their ability to activate PBMCs. PBMCs were incubated with the peptides (40 μg/mL) for 24 hours in RPMI plus 10% human AB serum. PBMC activation was measured as percent cells with enhanced expression of either CD69 (FIG. 42A) or CD71 (FIG. 42B) using flow cytometry. Two experiments were performed for each peptide.
Effects of modified peptides on activation of PBMCs from healthy control person were assessed. Activation was determined as percentage of cells with enhanced marker CD69 or CD71 using flow cytometry. PBMCs were incubated with the peptides (40 μg/mL) for 48 hours in RPMI plus 10% human AB serum.

[3] = test system: PBMCs; assay: PBMC activation (CD69) in culture medium with cancer sera; type: cell-based; conditions: sera from dogs with cancer or human patients with cancer
[4] = target: P3028 (PGE73=His-tag-P3028) (Homo sapiens, UniProt P02768); assay: Blocking of P3028 binding by peptide inhibitors in solution (PEPSCAN-based ELISA); conditions: peptide 0.5 mg/mL
Protocol: Three candidate peptide inhibitors of P3028 sequences/structures were identified and their blocking capacity in solution was tested. Potential peptide inhibitors of P3028 were synthesized on a chip. The linear and/or CLIPS peptides were synthesized based on the amino acid sequence of the target protein using standard Fmoc-chemistry and deprotected using trifluoric acid with scavengers. The constrained peptides were synthesized on chemical scaffolds in order to reconstruct conformational epitopes, using Chemically Linked Peptides on Scaffolds (CLIPS) technology (Timmerman et al. (2007)). For example, the single looped peptides were synthesized containing a dicysteine, which was cyclized by treating with alpha, alpha′-dibromoxylene and the size of the loop is varied by introducing cysteine residues at variable spacing. […] After one hour, the color development was measured. The color development was quantified with a charge coupled device (CCD)—camera and an image processing system.
The raw data (Raw Data: Optical density, Arbitrary OD units) are optical values obtained by a CCD-camera. The values mostly range from 0 to 3000, a log scale similar to 1 to 3 of a standard 96-well plate ELISA-reader. […] Sometimes a well contains an air-bubble resulting in a false-positive value, the cards are manually inspected and any values caused by an air-bubble are scored as 0. […]

[5] = test system: PBMCs; assay: Mitochondrial metabolism of PBMCs, conversion of MTS; type: cell-based, human; conditions: PBMCs from cancer patients, 5-40 μg/ml
Protocol: PBMCs from eight healthy control samples and nine cancer patients with various diagnoses (including renal cell cancer, malignant melanoma, rectal cancer, small cell lung cancer, non-small cell lung cancer (adenocarcinoma), squamous cell carcinoma, bladder cancer, osteosarcoma, pancreatic cancer, or bronchial cancer) were cultured in a modified version of the ex vivo model of Example 2 for seven days in the presence of various quantities of P28R (SEQ ID NO: 2), and control samples were untreated with P28R. […] Similar results were obtained when the PBMCs were cultured for only three days.
PBMCs from cancer patients with various diagnoses were cultured in a modified version of the ex vivo model of Example 2 with various concentrations of P28R or P27 (N=9 for P28R: N=8 for P27). The concentrations were either untreated control samples, 5 μg/mL (“SCF28-R5” and “SCF275”), 10 μg/ml (“SCF28-R10” and “SCF2710”), 20 μg/ml (“SCF28-R20” and “SCF2720”), or 40 μg/ml (“SCF28-R40” and “SCF2740”).

[6] = test system: PBMCs; assay: IL-2 induced proliferation of PBMCs, BrdU incorporation; type: cell-based, human; conditions: PBMCs with low initial proliferation / low response to IL-2, 7 days
Protocol: PBMCs were cultured for 7 days with IL-2 and the proliferative rate was determined as incorporation of BrdU. Each bar represents mean value of triplets. Similar to the studies on the efficacy of antibodies (see FIG. 22) directed against P3028 to reverse cancer related immunosuppression determined as a poor proliferative response of PBMCs from cancer patients to IL-2, the efficacy of the low molecular weight inhibitor P28R on reversal of suppressed IL-2 induced proliferation was investigated. For each quantity of added P28R, IL-2 stimulated cells 240 are shown in the left, and unstimulated 242 are shown on the right. […]
The effect of P28R (SEQ ID NO: 2) on IL-2 induced proliferation was measured in a BrdU incorporation assay. […]
The response of high responders and low responders to various doses of P28R was compared. […] IL-2-induced proliferation was measured as BrdU incorporation, as in the above example, and the results are shown for high responders in FIG. 36A, and low responders in FIG. 36B.
PBMCs from low responder cancer patients of Example 30 were cultured as in Example 30, except that some samples were cultured with various concentrations P28R (aka “SCF28-R”), and others were cultured with various concentrations of P27 (aka “SCF27”). […] BrdU incorporation was measured as in Example 30. […]

[7] = test system: PBMCs; assay: Direct binding to PBMCs (immunocytochemistry, rosetting of coated beads); set-up: species or system human

FFVKLS [P28 core]
binding to P3028 based on positional scans [1]: as efficiently as the full length peptide P28R
PBMC activation, enhanced CD69 or CD71 [2]: did not activate
PBMC activation, enhanced CD69 [3]: activated PBMCs

KKLDTFFKKLSLFTER [P27]
blocking of the binding of P3028 in solution [4]: does not
effect on MTS conversion [5]: no effect
effect on IL-2 induced proliferation (BrdU) [6]: enhanced the proliferative rate

biotinylated P28R: P28R labelled with biotin (KKLDTFFVKLSLFTER; also: biotin label, position not given here)
direct binding to PBMCs [7]: bind directly to PBMCs
